Source: a melting point compilation (Tetko et al.; mined from patent text by program, amines drawn as free bases though some values may be those of a salt)

Structure (SMILES) | melting point [°C]
CC(n1ncnn1)C(F)(c1ccc(OC(F)(F)F)cc1)c1ccc(OC(F)(F)F)cc1 (centres undefined) | 68 to 70
CS(=O)(=O)Nc1ccc(NC(=O)CCl)cc1 | 174 to 177
CCOC(=O)C1=C(C)N=C(N)N(C(=O)OCC)C1c1cccc([N+](=O)[O-])c1 (centres undefined) | 166 to 168
Cc1[nH]c2cccc3c2c1CC1C3CC(N)CN1C (centres undefined) | 240
O=C(NCc1ccc(Cl)cc1)c1cc2c(O)c(C(=O)NCc3ccc(Cl)cc3)cnc2o1 | 230 to 245
O=C1NCCc2c(-c3cccs3)[nH]c3cccc1c23 | 220 to 222
CC1(C)CCC(=O)N(C2c3cc4nonc4cc3OC(C)(C)C2O)C1 (centres undefined) | 136 to 137
Nc1cc(N2CCOCC2)cc(C(F)(F)F)c1 | 96 to 97
Cc1cc(Nc2nccc(-c3sc(CO)nc3C)n2)ccc1N1CCCCC1 | 142 to 144
COc1cc2ccc(C=O)cc2cc1OC | 87 to 88
Oc1ccc(C=C2c3cc(O)c(O)cc3-c3ccc(O)c(O)c32)cc1 | 228 to 230
CCN(CC)CC1CN=C(NC(=O)Nc2ccccc2)O1 (centres undefined) | 148
CN1C(=O)N(C)C(=O)C(Cc2ccccc2)(Cc2ccccc2)C1=O | 128 to 129
O=c1[nH]c(NCCCN(Cc2ccccc2)c2ccccn2)ncc1Cc1ccncc1 | 87 to 89
CN(C)C(N)=Nc1cc(C(F)(F)F)ccc1N1CCOCC1 | 132 to 135
Cc1ccccc1NC(=O)Nc1ccc(CC(=O)NC2(c3cc(CCC(=O)O)on3)CCCC2)cc1 | 195 to 197
CCCCCCCCn1c(=O)c2c(Cl)cc(Cl)cc2n(Cc2ccccc2)c1=O | 82 to 85
Cc1[nH]c2ccc(Br)cc2c1-c1ccncc1 | 248
Cc1nccn1C[Si](C)(C)Cc1ccc(F)cc1 | 60 to 62
OCCOCc1nnc2n1-c1ccc(Cl)cc1C(c1ccccc1)=NC2 | 162 to 164
CNC(=O)c1c(NC(=O)COC)c(OC)c(C(=O)NC)c(NC(=O)COC)c1OC | 275 to 276
CCOC(=O)c1cc2cc(C(F)(F)F)cnc2n1Cc1ccccc1 | 72 to 73
COc1nccc(C)c1NC(=O)c1cccnc1NC1CC1 | 151 to 152
CC(C)(NC(=O)c1nnc2ccc(NCCCN3CCC(OC(c4ccccc4)c4ccccc4)CC3)nn12)C(=O)O | 191 to 193
Cc1cc(CO)cc(C)c1O | 102 to 104

Structure (SMILES) | melting point [°C]
COC(=O)c1[nH]c2cccc(C)c2c1Sc1ccc(Cl)cc1 | 192 to 193
CCS(=O)(=O)c1c(CS(=O)(=O)C2=NOC(C)(C)C2)c(C(F)(F)F)nn1-c1ccccc1 | 158 to 160
Nc1cc(C(=O)c2cc3ccccc3o2)ccc1Cl | 137
CCC1(c2ccc(COc3ccc(CO)c(CO)c3)s2)OCCO1 | 78 to 80
CC1(O/N=C(\C(=O)O)c2csc(N)n2)CCCC1 | 182 to 183
O=Cc1ccc(C#Cc2ccc(Cl)cc2)cc1 | 123
O=C(O)Cc1cccc(NC(=O)NC2C(=O)N(CC(=O)N3CCCC3)c3ccccc3N(c3ccccc3F)C2=O)c1 (centres undefined) | 197 to 199
CCOC(=O)CNC(=O)c1csc(NC(=N)N)n1 | 190
CSC[C@H]1NC(=O)[C@@H](Cc2ccccc2)NC1=O | 246 to 247
CCOC(=O)CCC(=O)c1c(COC(C)=O)c(COC(C)=O)cc2cc(OC)c(OC)cc12 | 85 to 87
O=C1NCN(c2ccc(Br)cc2)C12CCN(C1C=CC(c3ccc(F)cc3)(c3ccc(F)cc3)CC1)CC2 (centres undefined) | 219 to 221
CCOC(=O)N=C1NCC(Oc2ccc(C(Cc3cc4cc(C#N)ccc4s3)C(=O)OCC)cc2)CN1 (centres undefined) | 179 to 182
NC(=O)c1nccn1C1Cc2c(cccc2-c2ccccc2)C1=O (centres undefined) | 196
CSc1ccc(C2NC(C(=O)O)C(C)(C)S2)cc1 (centres undefined) | 150 to 152
CCCCC1=C(C#N)N(O)CS1 | 118 to 120
CCN(c1nc(C)cc(C(=O)c2ccc3[nH]ccc3c2)n1)c1ccc(C(C)C)cc1Br | 77 to 79
CSc1nsc(-c2ccccc2)n1 | 57.1
CC1(C)CC(=O)Nc2cc3nc(-c4ccc(-n5ccnc5)cc4)[nH]c3cc21 | > 300
COc1cc2cc(CO)c(CO)c(-c3ccnc(Nc4ccccc4C(CO)CCO)c3)c2cc1OC (centres undefined) | 204 to 207
COc1ccc(-c2c(NC(=O)Nc3ccc(F)cc3F)c(=O)n(C)c3ccc(C)cc23)cc1OC | 231 to 233
O=C1N(C/C=C/C=C/c2ccccc2Cl)CCN1c1cccnc1 | 130 to 133
CCCCC1C(C(=O)/C=C/c2ccc(OC)cc2)C(=O)CC(c2ccc(OC)cc2)C1[N+](=O)[O-] (centres undefined) | 127 to 129
NC(=O)CCCCCOc1ccc(C#Cc2ccc(C(=O)O)cc2)cc1C12CC3CC(CC(C3)C1)C2 | 269 to 270
Cn1ncc2c1SSSSS2 | 57 to 60
c1ccc(Sc2ccc(-c3ccccc3)s2)cc1 | 72.5 to 74.5

Structure (SMILES) | melting point [°C]
COc1ccc(Oc2cccc(-c3nnc(Nc4ccc(Cl)c(Cl)c4)s3)c2)cc1 | 198 to 199
Cc1cc(C)n(Cc2ccc3c(c2)Cc2c(-c4ccsc4)n[nH]c2-3)n1 | 257 to 260
CCOC(=O)CSc1nc(Cl)cc(NCc2ccc(C)cc2C)n1 | 95 to 98
CC1(C)CCCNC1C(=O)O (centres undefined) | > 305
Cc1cccc(-c2n[nH]cc2-c2ccc(F)c(-c3cn4c(n3)S(=O)(=O)CC4)c2)n1 | 134 to 138
CC1(C)SCN(C(=O)[C@@H](O)[C@H](Cc2ccccc2)NC(=O)O[C@H]2CCOC2)[C@@H]1C(=O)N[C@H]1CCCc2ccccc21 | 103 to 105
COc1ccc2c(c1)-c1nn(CCO)c3cccc(c13)N2 | 275 to 276
CS(=O)(=O)c1ccc(-c2cc(CO)sc2-c2ccc(F)cc2)cc1 | 140 to 142
CN(C)CCCN(C)C(=O)Nc1ccc(-c2nnc(CSCCOc3ccccc3)o2)cc1 | 136 to 139
CC1=NC(NC(=O)Nc2cc(C)ccn2)C(=O)N(CC(=O)N2CC3CCC(CC3)C2)c2c(C)cccc21 (centres undefined) | 152 to 154
C#CCn1c(=O)n(C)c(=O)c2c1nc(Cl)n2Cc1ccccc1 | 169 to 172
COc1ccc2c(ccc3c4cc5c(cc4nnc23)OCO5)c1 | 258 to 260
Cc1cc(-n2nc(C(F)F)cc2-c2ccc(S(C)(=O)=O)cc2)ccc1Br | 141 to 142
CCCCCCCCCCCCc1ccc(S(=O)(=O)Nc2nnc(CCCCCN(C)c3ccc([N+](=O)[O-])c4nonc34)s2)cc1 | 102 to 104
CC(NC(=O)c1ccccc1)c1c[nH]c(-c2ccccc2)n1 (centres undefined) | 132 to 135
CCCC1(CCC)C(=O)N(C(C)(C)C)CC(C)(C)N1OC(C)(C)C#N | 85 to 87
O=C(Cc1ccc2ccccc2c1OCC1CO1)NCCO[N+](=O)[O-] (centres undefined) | 67 to 71
CC(=O)c1ccc(Oc2ccc(-c3scc(-c4ccccc4Cl)c3CC(=O)N=C(N)N)cc2)cc1 | 117 to 118
COC(=O)CC(=O)CS(=O)(=O)C(c1ccc(Cl)cc1)c1ccc(Cl)cc1 | 76 to 78
O=C(CNC(=O)c1nc2cccc(OC(F)(F)F)c2cc1OCc1ccccc1)OCc1ccccc1 | 123 to 124
CCOC(=O)C(=Cc1c(C)cc(C)cc1C)C(=O)CCl | 85
CC(O)COc1ccc(Oc2cccc(F)c2)cc1 (centres undefined) | 37 to 39
Cc1c(NC(=O)c2ccc(OC[C@@H]3CCCO3)cc2F)ccc2cc(CNCC(C)(C)O)cnc12 | 167 to 168
CCOC(=O)C(C)c1ccc(-c2ccc(F)cc2F)c(O)c1 (centres undefined) | 72 to 73
CC1=C(C(=O)Nc2ccc(Cl)cc2)SCCS1 | 115 to 117

Structure (SMILES) | melting point [°C]
NCC(=NNc1ccccc1)c1ccccc1 | 106 to 108
Clc1ccc2c(C3=CCNCC3)c[nH]c2c1 | 181 to 185
Cc1cccc(-c2cccc(CBr)n2)n1 | 88
C=CC(Cc1ccccc1)(C(=O)O)N(Cc1ccccc1)C(=O)OCc1ccccc1 (centres undefined) | 68 to 70
C(=C(c1ccccc1)c1ccccc1)P(c1ccccc1)c1ccccc1 | 116 to 118
CC(=O)Nc1ccc2c(c1)OCC2 | 115 to 118
Oc1ccc2cc(Br)ccc2c1Cl | 100 to 101
Cc1nc2c(O)c(C(=O)[C@H](O)[C@@H](O)c3ccccc3)ccc2n1C1CC1 | 120
Cc1ccc(C)c(S(=O)(=O)N(C)CC(O)(CO)c2ccccc2)c1 (centres undefined) | 114 to 115
O=C(Nc1ccc(C(=O)N2Cc3ccccc3Cc3ccccc32)cc1)c1cc(Cl)cc(Cl)c1 | 257 to 259
Cc1cccc(NC(=O)NC(CC(=O)O)C(=O)N(CC(=O)OC(C)(C)C)c2ccccc2)c1 (racemic) | 198
Cc1cc2c(cc1O)C(C)(C)CC1(CC(C)(C)c3cc(OC(C)(C)C(=O)O)c(C)cc3O1)O2 (centres undefined) | 99 to 101
CCCCOCCOc1ccc(-c2cc3c4c(c2)OCCN4CCCC(C(=O)O)=C3)cc1 | 205 to 209
Nn1cc(C(=O)O)c(=O)c2cc(F)c(Cl)cc21 | 274
O=C1C=C(OCCCCCCI)c2ccccc2C1=O | 85 to 87
O=C(CSc1nc2ccccc2[nH]1)c1ccccc1 | 167
Cc1[nH]cnc1CSCCNC(=N)NCCCc1c[nH]cn1 | 128 to 131
CCCCN(C)C(=O)CS(=O)CCCCCOc1ccc(C2=C(c3ccccc3)CCCc3cc(O)ccc32)cc1 (centres undefined) | 87 to 89
COC(=O)c1cc(=O)c2oc3ccc(Cl)cc3c(=O)c2[nH]1 | 300 to 305
NC(=O)c1cccc(CN2C(=O)C3(COc4cc5c(cc43)OCCO5)c3ccccc32)c1 (centres undefined) | 130 to 135
COc1ccc(C(=O)Nc2cc(NC(=O)c3ccc(OCCN4CCCC4)cc3)ccc2C)cc1OC | 258 to 259
Oc1ccc(-c2cc3cc(F)cc(F)c3o2)cc1 | 152 to 154
CC(C)(C)NCCCOc1ccccc1C(=O)c1cccc2[nH]ccc12 | 130
CC(C)(C)OC(=O)CN1CCN(c2ccnc(C#N)c2)C1=O | 139 to 140
